Data on 1 molecule can be found in patent US10328079B2, “[6R]-MTHF multiple bolus administration in 5-fluorouracil based chemotherapy” (Isofol Medical AB, priority 2017, dated 2019).

The structures appear in SMILES notation.

In this data set the test system is thymidylate synthase (TS). Nature of the data set: Historical group comparison study: incremental plasma dUrd (marker of TS inhibition) 24 h after 5-FU bolus plus folate. It counts as in vivo, human. As to the method: The elevation of plasma 2′-deoxyuridine (dUrd) is a marker of TS inhibition. (Ford et al. (2002) Clinical Cancer Research, 8(1): 103-109).
The historical group comparison study was conducted as follows:
All patients were treated with a standard dose of 500 mg 5-FU given as a bolus injection plus the respective folate [6R]-MTHF or LV, also given as bolus injections.
In Gothenburg (Sweden), for almost two decades, clinical, treatment and outcomes data on all patients with CRC have been collected at the local university hospital (Östra sjukhuset—Sahlgrenska Universitetssjukhuset). Plasma and tissue samples have been stored in a biobank under appropriate physical conditions for long term storage. The database and the biobank operate under the auspices of the relevant ethical and regulatory permissions. Patients having been treated with the standard 5-FU dose, 500 mg/m2 plus i.v. bolus LV, 60 mg/m2 were randomly drawn from the databank. For all patients, stored plasma samples were used for determination of dUrd.
Twenty-four patients with metastatic colorectal cancer (mCRC) treated with 5-FU plus 60 mg/m^2 LV were drawn at random from the database and levels of dUrd were determined at t0 and t24 from two treatment cycles for each patient and the mean values and standard deviations for the differences between t24 and t0 were calculated in the same way as for the [6R]-MTHF patients. Since LV is a “racemic” 50:50 mixture of the natural (S-formyl-tetrahydrofolate) and unnatural (R-formyl-tetrahydrofolate) isomers, the active isomer constitutes one half of the racemic LV doses given. The molecular weights for LV and [6R]-MTHF are very similar and therefore 60 mg of LV may be considered as equimolar with 30 mg of [6R]-MTHF.
All patients were enrolled in the ISO-CC-005 study and measured during two consecutive treatment cycles with 5-FU. Values for dUrd were measured immediately before injection of 5-FU (to) and after 24 hours (t24). Mean values and standard deviations for differences between t24 and to were calculated for the patients on each dose level of 30 and 60 mg/m^2 respectively.
The differences between all three groups were tested by means of the […] and thereafter the difference between the two equimolar groups LV 60 mg/m2 and 6R-MTHF 30 mg/m^2 was tested by means of the Mann-Whitney U test. P-values less than 0.05 were considered significant.
Plasma dUrd was determined by a method comprising liquid chromatography followed by tandem mass spectrometry broadly summarized as follows. Plasma samples were removed from −80° C. freezer, trichloroacetic acid was added to the plasma, and the samples mixed and centrifuged. The supernatant was filtered in a 10 kDa molecular weight cut-off membrane filter and again centrifuged for 30 min. The solution at the bottom of the tube was then ready for LC-MS/MS analysis. Calibration samples were prepared in the same way using blank plasma samples and different internal standard concentrations. The injection volume into LC-MS/MS was 40 μl. Deoxyuridine and chlorodeoxyuridine were ionized by electrospray negative mode. MS parameters were optimized for maximum response of all folates. A MS/MS acquisition method (multiple reaction monitoring) was utilized.

For the molecule `Nc1nc2c(c(=O)[nH]1)N1CN(c3ccc(C(=O)N[C@@H](CCC(=O)O)C(=O)O)cc3)C[C@H]1CN2` [[6R]-MTHF, [6R]-5,10-methylenetetrahydrofolate], the “Mean (t24-t0) plasma dUrd” value runs as follows: ([6R]-MTHF 30 mg/m^2 BSA bolus with 5-FU 500 mg/m^2, 24 hours, n=18) 74.7 pmol/mL; ([6R]-MTHF 60 mg/m^2 BSA bolus with 5-FU 500 mg/m^2, 24 hours, n=16) 91.8 pmol/mL. For the same molecule, the “level of dUrd vs equimolar LV, together with 5-FU” value ([6R]-MTHF 30 mg/m^2 vs LV 60 mg/m^2, p=0.03) is “significantly higher”. In addition, the “TS inhibition from fixed doses of 5-FU vs [6R]-MTHF dose (dUrd)” value (dUrd measurements incl. 120 mg vs 240 mg, ISO-CC-005) was “dose dependent and flattens off att very high doses”.
